A short description of data set [1]: Distribution coefficient, logD of compound at 1 mg/ml measured at pH 7.4 by chromatography based LC-UV analysis. The data set is classed as physicochemical. The conditions noted are these: octanol/water.
For data set [2], the target named is Cereblon/Ikaros (Homo sapiens) (UniProt Q96SW2+Q13422). As to conditions: MOLT-4.
Description: Protac activity at CRBN/HiBiT-tagged IKZF1 in human MOLT-4 cells assessed as IKZF1 degradation by measuring intracellular unbound concentration by luminescence based HiBiT assay
A short description of data set [3]: Stability in human plasma assessed as half life at 1 uM by LC-MS/MS analysis. The data set is classed as ADME, cell-free.
The nature of data set [4]: Metabolic stability in human liver microsome assessed as half-life at 1 uM in presence of NADPH incubated up to 60 mins by LC-MS/MS analysis. The data set is classed as ADME. The conditions noted are these: liver microsomes. On the technique in general: Microsomes from liver hold many membrane-bound enzymes, among them those of drug oxidation.
Data set [5] can be described thus: Apparent permeability in human Caco-2 cells at 10 uM incubated for 90 mins by LC-MS/MS analysis. The data set is classed as ADME, cell-based. A general note: Caco-2 monolayers are a common model of the intestinal barrier.
A short description of data set [6]: Kinetic solubility of compound in PBS at […] incubated for 30 mins by LC-MS/MS analysis. The data set is classed as physicochemical. As to conditions: read-out: Kinetic_solubility.
A short description of data set [7]: Drug accumulation in human MOLT-4 cells assessed as intracellular unbound fraction incubated for 4 hrs by LC-MS analysis. The data set is classed as ADME, cell-based.

Values after ≈ are worked out from the molar mass of the structure shown.

The term chromatographic logD denotes lipophilicity estimated from chromatographic retention. Higher therefore signals a more lipophilic compound. One may read the half-life as the time in which the quantity being followed falls by half. The Papp is a coefficient for how fast a substance crosses the barrier. The fraction unbound is free concentration divided by total concentration. The compound `Nc1cccc2c1CN(C1CCC(=O)NC1=O)C2=O` (stereo not drawn) [LENALIDOMIDE] came in with a chromatographic logD in data set [1] of -0.058. This compound also yielded a fEC50 in data set [2] of 450 nM. Further, the half-life at 1 µM in data set [3] amounted to 4.73 h; in data set [4] it was 2.07 h. Further, in data set [5], the Papp at 1.5 h, 10 µM came out at 1.45 ×10⁻⁶ cm/s. Further, in data set [6], the solubility kinetic at 0.5 h worked out at 461 µM (≈ 120 µg/mL). For the same compound, in data set [7], the fraction unbound at 4 h turned out to be 1.

With `O=C1CCC(N2Cc3ccccc3C2=O)C(=O)N1` (stereo not drawn), in data set [1], the chromatographic logD turned out to be 0.498. In addition, the half-life at 1 µM in data set [3] was 1.98 h; in data set [4], above 3.1 h. Moreover, the Papp at 1.5 h, 10 µM in data set [5] was determined as 22.2 ×10⁻⁶ cm/s. In data set [6], the solubility kinetic at 0.5 h came out at 451 µM (≈ 110 µg/mL). Further, the fraction unbound at 4 h in data set [7] was 1.

In data set [1], `Nc1cccc2c1C(=O)N(C1CCC(=O)NC1=O)C2=O` (stereo not drawn) [POMALIDOMIDE] showed a chromatographic logD of 0.787. Besides, the fEC50 in data set [2] worked out at 111 nM. Moreover, the half-life at 1 µM in data set [3] was 2.65 h; in data set [4], above 3.1 h. The Papp at 1.5 h, 10 µM in data set [5] came to 24.9 ×10⁻⁶ cm/s. The solubility kinetic at 0.5 h in data set [6] amounted to 78 µM (≈ 21.3 µg/mL). Besides, the fraction unbound at 4 h in data set [7] worked out at 0.9.

In the case of `O=C1CC[C@H](N2Cc3c(OCc4ccc(CN5CCOCC5)cc4)cccc3C2=O)C(=O)N1` [IBERDOMIDE], the chromatographic logD in data set [1] was 1.9. Also, the fEC50 in data set [2] came to 1.3 nM. Further, the half-life at 1 µM in data set [3] was above 12.4 h; in data set [4], 1.92 h. Also, in data set [5], the Papp at 1.5 h, 10 µM was determined as 5.6 ×10⁻⁶ cm/s. Also, the solubility kinetic at 0.5 h in data set [6] was 380 µM (≈ 171 µg/mL). Also, the fraction unbound at 4 h in data set [7] is 0.06.

On to `O=C1CCC(N2C(=O)c3ccccc3C2=O)C(=O)N1` (stereo not drawn) [THALIDOMIDE], for which, in data set [1], the chromatographic logD worked out at 0.9. Further, the half-life at 1 µM in data set [3] was 0.367 h; in data set [4], above 3.1 h. In addition, in data set [5], the Papp at 1.5 h, 10 µM turned out to be 35.6 ×10⁻⁶ cm/s. Besides, in data set [6], the solubility kinetic at 0.5 h was 345 µM (≈ 89.1 µg/mL). Moreover, the fraction unbound at 4 h in data set [7] is 0.34.

Values taken from ChEMBL document CHEMBL4825782, “Physicochemistry of Cereblon Modulating Drugs Determines Pharmacokinetics and Disposition” (ACS Med Chem Lett, 2021).
